≈ marks a conversion by molar mass, not a printed value.
How the values were obtained:
[1] = Cytotoxicity against human Huh7.5 cells infected with Hepatitis C virus assessed as reduction in cell viability; assay type: toxicity, cell-based, Huh-7.5
Hepatitis C virus [2] = test: Antiviral activity against Hepatitis C virus genotype 2 Rluc-J6/JFH1 infected in human Huh7.5 cells assessed as reduction in viral replication treated for 72 hrs by qRT-PCR analysis; assay type: functional, organism-based, Hepacivirus hominis; details: genotype 2 Rluc-J6/JFH1, Huh7.5, 72 h
Hepatitis C virus [3] = test: Antiviral activity against Hepatitis C virus infected in human Huh7.5 cells assessed as reduction in viral replication; assay type: functional, organism-based, Hepacivirus hominis
Hepatitis C virus [4] = test: Antiviral activity against Hepatitis C virus genotype 2 J6/JFH1 infected in human Huh7.5 cells assessed as reduction in viral replication treated for 72 hrs by qRT-PCR analysis; assay type: functional, organism-based, Hepacivirus hominis; details: genotype 2 J6/JFH1, Huh7.5, 72 h
Hepatitis C virus [5] = test: Antiviral activity against Hepatitis C virus genotype 1 Bart791 infected in human Huh7.5 cells assessed as reduction in viral replication treated for 72 hrs by qRT-PCR analysis; assay type: functional, organism-based, Hepacivirus hominis; details: genotype 1 Bart791, Huh7.5, 72 h
Human alphaherpesvirus 1 [6] = test: Antiviral activity against HSV-1 clinical isolate infected in African green monkey Vero cells incubated for 3 days by plaque reduction assay; assay type: functional, organism-based; details: Human alphaherpesvirus 1, Vero, 72 h
Human alphaherpesvirus 2 [7] = test: Antiviral activity against HSV-2 333 infected in African green monkey Vero cells incubated for 3 days by plaque reduction assay; assay type: functional, organism-based; details: Human alphaherpesvirus 2, 333, Vero, 72 h
[8] = Selectivity index, ratio of CC50 for cytotoxicity against African green monkey Vero cells to IC50 for antiviral activity against HSV-1 15577 infected in African green monkey Vero cells; assay type: toxicity, cell-based; details: read-out: Ratio CC50/IC50
Human alphaherpesvirus 1 [9] = test: Antiviral activity against HSV-1 15577 infected in African green monkey Vero cells incubated for 3 days by plaque reduction assay; assay type: functional, organism-based; details: Human alphaherpesvirus 1, 15577, Vero, 72 h
[10] = Selectivity index, ratio of CC50 for cytotoxicity against African green monkey Vero cells to IC50 for antiviral activity against HSV-2 333 infected in African green monkey Vero cells; assay type: toxicity, cell-based; details: read-out: Ratio CC50/IC50
[11] = Selectivity index, ratio of CC50 for cytotoxicity against African green monkey Vero cells to IC50 for antiviral activity against HSV-1 clinical isolate infected in African green monkey Vero cells; assay type: toxicity, cell-based; details: read-out: Ratio CC50/IC50
[12] = tested on: Human immunodeficiency virus 1; test: Antiviral activity against HIV-1 GB8 infected in human JM1 cells; assay type: functional, organism-based; details: Human immunodeficiency virus 1, GB8, JM1
Human alphaherpesvirus 2 [13] = test: Antiviral activity against HSV-2 VR-734 infected in human HeLa cells; assay type: functional, organism-based; details: Human alphaherpesvirus 2, VR-734, HeLa
Human alphaherpesvirus 2 [14] = test: Antiviral activity against HSV-2 VR-734 infected in human NCI-H1299 cells; assay type: functional, organism-based; details: Human alphaherpesvirus 2, VR-734, NCI-H1299
Human alphaherpesvirus 2 [15] = test: Antiviral activity against HSV-2 VR-734 infected in African green monkey Vero cells assessed as inhibition of viral replication measured after 72 hrs by MTT assay; assay type: functional, organism-based; details: Human alphaherpesvirus 2, VR-734, Vero
Human alphaherpesvirus 2 [16] = test: Antiviral activity against HSV-2 Baylor 186 infected in African green monkey Vero cells incubated for 2 days by plaque reduction assay; assay type: functional, organism-based; details: Human alphaherpesvirus 2, Baylor 186, Vero, 48 h
Human alphaherpesvirus 1 [17] = test: Antiviral activity against HSV-1 7401H infected in African green monkey Vero cells incubated for 2 days by plaque reduction assay; assay type: functional, organism-based; details: Human alphaherpesvirus 1, 7401H
Human alphaherpesvirus 1 [18] = test: Antiviral activity against HSV-1 KOS infected in African green monkey Vero cells incubated for 2 days by plaque reduction assay; assay type: functional, organism-based; details: Human alphaherpesvirus 1, KOS, 48 h

With `Oc1ccc(C2Oc3ccc(/C=C/c4cc(O)cc5c4C(c4cc(O)cc(O)c4)C(c4ccc(O)cc4)O5)cc3C2c2cc(O)cc3c2C(c2cc(O)cc(O)c2)C(c2ccc(O)cc2)O3)cc1` (stereo not drawn) the CC50 [1] was greater than 10 µM, the EC50 (Hepatitis C virus [2]) was 0.003 µM and the EC50 (Hepatitis C virus [3]) was 0.006 µM. It also gave an EC50 (Hepatitis C virus [4]) of 0.003 µM and an EC50 (Hepatitis C virus [5]) of 0.001 µM.
`CC1=C[C@H](c2c(O)cc(/C=C/c3ccc(O)cc3O)cc2O)[C@@H](C(=O)c2ccc(O)cc2O)[C@H](c2ccc(O)cc2O)C1` gave an IC50 (Human alphaherpesvirus 1 [6]) of 1.5 µg/mL (≈ 2.57 µM), an IC50 (Human alphaherpesvirus 2 [7]) of 2.5 µg/mL (≈ 4.29 µM) and a selectivity ratio [8] of 37. The IC50 (Human alphaherpesvirus 1 [9]) was 2.2 µg/mL (≈ 3.78 µM), the selectivity ratio [10] was 32 and the selectivity ratio [11] was 55.
Molecule `O=S(=O)(O)c1cc(N=C=S)ccc1CCc1ccc(N=C=S)cc1S(=O)(=O)O` has an IC50 [12] of 40 µM.
With `Oc1ccc([C@H]2c3c(O)cc(O)cc3[C@@H]3c4c(cc(O)cc4[C@H]4[C@@H](c5ccc(O)cc5)c5c(O)cc(O)cc5[C@H]5c6c(cc(O)cc6[C@H]24)O[C@@H]5c2ccc(O)cc2)O[C@H]3c2ccc(O)cc2)cc1` the IC50 (Human alphaherpesvirus 2 [13]) was 3.2 µM, the IC50 (Human alphaherpesvirus 2 [14]) was 3.2 µM and the IC50 (Human alphaherpesvirus 2 [15]) was 3.2 µM.
With `Oc1cc(O)cc(/C=C/c2ccc(O)cc2O)c1` [OXYRESVERATROL] the IC50 (Human alphaherpesvirus 2 [16]) was 18.7 µg/mL (≈ 76.6 µM), the IC50 (Human alphaherpesvirus 1 [17]) was 19.8 µg/mL (≈ 81.1 µM) and the IC50 (Human alphaherpesvirus 1 [18]) was 24 µg/mL (≈ 98.3 µM).

Source: ChEMBL document CHEMBL5233255, “Natural and nature-inspired stilbenoids as antiviral agents” (Eur J Med Chem, 2020)
